Test results published in patent publication US20230077362A1 (CORTEVA AGRISCIENCE LLC, priority 2019, published 2023).
Like-named read-outs stand apart in the source and are kept apart here.

Experiments:
[1] = tested on: Beet Armyworm (Spodoptera exigua) ("BAW"), second instar larvae; experiment: Bioassay on beet armyworm (BAW), 128-well diet tray assay; type: in vivo; settings: for pest or weed control at 50 µg/cm2: Spodoptera exigua
How it was run: (§1)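 Mortality (%) is scored well by well after five to seven days at 25° C. on a 14:10 light:dark regime. The value given is the mean of eight wells.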

[2] = tested on: Cabbage Looper (Trichoplusia ni) ("CL"), second instar larvae; experiment: Bioassay on cabbage looper (CL), 128-well diet tray assay; type: in vivo; settings: for pest or weed control at 50 µg/cm2: Trichoplusia ni
How it was run: as §1

[3] = read-out: BAW (Biological Results, rating)
[4] = read-out: CL (Biological Results, rating)

Compound | pest or weed control at 50 µg/cm2 ([1]; read-out: BAW rating) [%] | pest or weed control at 50 µg/cm2 ([2]; read-out: CL rating) [%] | pest or weed control at 50 µg/cm2 [1, 3] [%] | pest or weed control at 50 µg/cm2 [2, 4] [%] | further results
COC(C)c1ccc(C)cc1N1C(=O)CS/C1=N\C(=O)Nc1ccc(-c2cn(-c3ccc(C(F)(F)F)cn3)cn2)cc1F (centres unmarked) [Compound J461, (Z)-1-(2-Fluoro-4-(1-(5-(trifluoromethyl)pyridin-2-yl)-1H-imidazol-4-yl)phenyl)-3-(3-(2-(1-methoxyethyl)-5-methylphenyl)-4-oxothiazolidin-2-ylidene)urea] | 50 to 100 | 50 to 100 | – | – | –
COCc1ccc(N(C)C)cc1N1C(=O)CS/C1=N\C(=O)Nc1ccc(-n2cnc(-c3ccc(OC(F)(F)F)cc3)n2)cc1C [Compound J444, (Z)-1-(3-(5-(Dimethylamino)-2-(methoxymethyl)phenyl)-4-oxothiazolidin-2-ylidene)-3-(2-methyl-4-(3-(4-(trifluoromethoxy)phenyl)-1H-1,2,4-triazol-1-yl)phenyl)urea] | 50 to 100 | 50 to 100 | – | – | –
COC(c1ccc(C)cc1N1C(=O)CS/C1=N\C(=O)Nc1ccc(-c2nc(-c3ccc(OC(F)(F)F)cc3)no2)cc1F)C(F)(F)F (centres unmarked) [Compound J428, (Z)-1-(2-Fluoro-4-(3-(4-(trifluoromethoxy)phenyl)-1,2,4-oxadiazol-5-yl)phenyl)-3-(3-(5-methyl-2-(2,2,2-trifluoro-1-methoxyethyl)phenyl)-4-oxothiazolidin-2-ylidene)urea] | 50 to 100 | 50 to 100 | – | – | –
CCCc1ccc(C)cc1N1C(=O)CS/C1=N\C(=O)Nc1ccc(-c2ncn(-c3ccc(C(F)(F)F)cn3)n2)cc1C [Compound J293, (Z)-1-(3-(5-Methyl-2-propylphenyl)-4-oxothiazolidin-2-ylidene)-3-(2-methyl-4-(1-(5-(trifluoromethyl)pyridin-2-yl)-1H-1,2,4-triazol-3-yl)phenyl)urea] | – | – | 50 to 100 | 50 to 100 | –
CCOCc1ccc(C)cc1N1C(=O)CS/C1=N\C(=O)Nc1ccc(-c2ncn(-c3ccc(C(F)(F)F)cn3)n2)cc1F [Compound J299, (Z)-1-(3-(2-(Ethoxymethyl)-5-methylphenyl)-4-oxothiazolidin-2-ylidene)-3-(2-fluoro-4-(1-(5-(trifluoromethyl)pyridin-2-yl)-1H-1,2,4-triazol-3-yl)phenyl)urea] | – | – | 50 to 100 | 50 to 100 | –
Cc1ccc(CC(C)C)c(N2C(=O)CS/C2=N\C(=O)Nc2ccc(-c3ncn(-c4ccc(OC(F)(F)F)cc4)n3)cc2F)c1 [Compound J47, (Z)-1-(2-Fluoro-4-(1-(4-(trifluoromethoxy)phenyl)-1H-1,2,4-triazol-3-yl)phenyl)-3-(3-(2-isobutyl-5-methylphenyl)-4-oxothiazolidin-2-ylidene)urea] | – | – | 50 to 100 | 50 to 100 | –
Cc1ccc(OCCC(F)(F)F)c(N2C(=O)CS/C2=N\C(=O)Nc2ccc(-c3ncn(-c4ccc(C(F)(F)F)cc4)n3)cc2F)c1 [Compound J64, (Z)-1-(2-Fluoro-4-(1-(4-(trifluoromethyl)phenyl)-1H-1,2,4-triazol-3-yl)phenyl)-3-(3-(5-methyl-2-(3,3,3-trifluoropropoxy)phenyl)-4-oxothiazolidin-2-ylidene)urea] | – | – | 50 to 100 | 50 to 100 | –
CCCc1ccc(C)cc1N1C(=O)CS/C1=N\C(=O)Nc1ccc(-c2ncn(-c3ccc(C(F)(F)F)cc3)n2)cc1C [Compound J15, (Z)-1-(3-(5-Methyl-2-propylphenyl)-4-oxothiazolidin-2-ylidene)-3-(2-methyl-4-(1-(4-(trifluoromethyl)phenyl)-1H-1,2,4-triazol-3-yl)phenyl)urea] | – | – | 50 to 100 | 50 to 100 | –
CCCc1ccc(N(C)C)cc1N1C(=O)CS/C1=N\C(=O)Nc1ccc(-c2ncn(-c3ccc(SC(F)(F)F)cc3)n2)cc1 [Compound J388, (Z)-1-(3-(5-(Dimethylamino)-2-propylphenyl)-4-oxothiazolidin-2-ylidene)-3-(4-(1-(4-((trifluoromethyl)thio)phenyl)-1H-1,2,4-triazol-3-yl)phenyl)urea] | 50 to 100 | 50 to 100 | – | – | –
COCc1ccc(N(C)C)cc1N1C(=O)CS/C1=N\C(=O)Nc1ccc(-c2cn(-c3ccc(S(F)(F)(F)(F)F)cc3)cn2)cc1F [Compound J601, (Z)-1-(3-(5-(Dimethylamino)-2-(methoxymethyl)phenyl)-4-oxothiazolidin-2-ylidene)-3-(2-fluoro-4-(1-(4-(pentafluoro-λ^6-sulfaneyl)phenyl)-1H-imidazol-4-yl)phenyl)urea] | 50 to 100 | 50 to 100 | – | – | –
CN(C)c1ccc(OCC(F)(F)F)c(N2C(=O)CS/C2=N\C(=O)Nc2ccc(-c3ncn(-c4ccc(OC(F)(F)F)cn4)n3)cc2F)c1 [Compound J263, (Z)-1-(3-(5-(Dimethylamino)-2-(2,2,2-trifluoroethoxy)phenyl)-4-oxothiazolidin-2-ylidene)-3-(2-fluoro-4-(1-(5-(trifluoromethoxy)pyridin-2-yl)-1H-1,2,4-triazol-3-yl)phenyl)urea] | – | – | 50 to 100 | 50 to 100 | –
Cc1ccc(OCCC(F)(F)F)c(N2C(=O)CS/C2=N\C(=O)Nc2ccc(-c3cn(-c4ccc(C(F)(F)F)cc4)cn3)cc2C)c1 [Compound J527, (Z)-1-(3-(5-Methyl-2-(3,3,3-trifluoropropoxy)phenyl)-4-oxothiazolidin-2-ylidene)-3-(2-methyl-4-(1-(4-(trifluoromethyl)phenyl)-1H-imidazol-4-yl)phenyl)urea] | 50 to 100 | 50 to 100 | – | – | –
Cc1ccc(C(C)C)c(N2C(=O)CS/C2=N\C(=O)Nc2ccc(-c3ncn(-c4ccc(OC(F)(F)C(F)(F)F)cc4)n3)c(C)c2)c1 [Compound J2] | – | – | 50 to 100 | 50 to 100 | –
COc1cc(COCC(F)(F)F)c(N2C(=O)CS/C2=N\C(=O)Nc2ccc(-c3ncn(-c4ccc(S(F)(F)(F)(F)F)cc4)n3)cc2F)cc1OC [Compound J561] | – | – | – | – | BAW rating ([1]; Table ABC, species BAW, C = not tested, D = no activity noticed): A (50-100); CL rating ([2]; Table ABC, species CL, C = not tested, D = no activity noticed): A (50-100)
CCCc1ccc(C)cc1N1C(=O)CS/C1=N\C(=O)Nc1ccc(-c2nnc(-c3ccc(OC(F)(F)F)cc3)o2)cc1F [Compound J608, (Z)-1-(2-Fluoro-4-(5-(4-(trifluoromethoxy)phenyl)-1,3,4-oxadiazol-2-yl)phenyl)-3-(3-(5-methyl-2-propylphenyl)-4-oxothiazolidin-2-ylidene)urea] | 50 to 100 | 50 to 100 | – | – | –
Cc1ccc(COCc2nc3ccccc3s2)c(N2C(=O)CS/C2=N\C(=O)Nc2ccc(-c3ncn(-c4ccc(OC(F)(F)F)cc4)n3)cc2F)c1 [Compound J640, (Z)-1-(3-(2-((Benzo[d]thiazol-2-ylmethoxy)methyl)-5-methylphenyl)-4-oxothiazolidin-2-ylidene)-3-(2-fluoro-4-(1-(4-(trifluoromethoxy)phenyl)-1H-1,2,4-triazol-3-yl)phenyl)urea] | 50 to 100 | 50 to 100 | – | – | –
COC(C)c1ccc(C)cc1N1C(=O)CS/C1=N\C(=O)Nc1ccc(-c2ncn(-c3ccc(OC(F)(F)F)cc3)n2)cc1C(C)=O (centres unmarked) [Compound J397, (Z)-1-(2-Acetyl-4-(1-(4-(trifluoromethoxy)phenyl)-1H-1,2,4-triazol-3-yl)phenyl)-3-(3-(2-(1-methoxyethyl)-5-methylphenyl)-4-oxothiazolidin-2-ylidene)urea] | 50 to 100 | 50 to 100 | – | – | –
CCCNc1ccc(C(C)C)c(N2C(=O)CS/C2=N\C(=O)Nc2ccc(-c3ncn(-c4ccc(OC(F)(F)F)cc4)n3)cc2F)c1 [Compound J107, (Z)-1-(2-Fluoro-4-(1-(4-(trifluoromethoxy)phenyl)-1H-1,2,4-triazol-3-yl)phenyl)-3-(3-(2-isopropyl-5-(propylamino)phenyl)-4-oxothiazolidin-2-ylidene)urea] | – | – | 50 to 100 | 50 to 100 | –
COc1ccc(C(C)C)c(N2C(=O)CS/C2=N\C(=O)Nc2ccc(-c3ncn(-c4ccc(OC(F)(F)C(F)(F)F)cc4)n3)c(C)c2)c1 [Compound J7, (Z)-1-(3-(2-Isopropyl-5-methoxyphenyl)-4-oxothiazolidin-2-ylidene)-3-(3-methyl-4-(1-(4-(perfluoroethoxy)phenyl)-1H-1,2,4-triazol-3-yl)phenyl)urea] | – | – | 50 to 100 | 50 to 100 | –
CN(C)c1ccc(C(F)(F)F)c(N2C(=O)CS/C2=N\C(=O)Nc2ccc(-c3nnc(-c4ccc(OC(F)(F)F)cc4)o3)cc2F)c1 [Compound J611, (Z)-1-(3-(5-(Dimethylamino)-2-(trifluoromethyl)phenyl)-4-oxothiazolidin-2-ylidene)-3-(2-fluoro-4-(5-(4-(trifluoromethoxy)phenyl)-1,3,4-oxadiazol-2-yl)phenyl)urea] | 50 to 100 | 50 to 100 | – | – | –
CC(=O)c1cc(-c2ncn(-c3ccc(OC(F)(F)F)cc3)n2)ccc1NC(=O)/N=C1\SCC(=O)N1c1cc(C)ccc1OCCC(F)(F)F [Compound J399, (Z)-1-(2-Acetyl-4-(1-(4-(trifluoromethoxy)phenyl)-1H-1,2,4-triazol-3-yl)phenyl)-3-(3-(5-methyl-2-(3,3,3-trifluoropropoxy)phenyl)-4-oxothiazolidin-2-ylidene)urea] | 50 to 100 | 50 to 100 | – | – | –
CCOc1ccc(C)cc1N1C(=O)CS/C1=N\C(=O)Nc1ccc(-c2ncn(-c3ccc(OC(F)(F)F)cc3)n2)cc1F [Compound J59, (Z)-1-(3-(2-Ethoxy-5-methylphenyl)-4-oxothiazolidin-2-ylidene)-3-(2-fluoro-4-(1-(4-(trifluoromethoxy)phenyl)-1H-1,2,4-triazol-3-yl)phenyl)urea] | – | – | 50 to 100 | 50 to 100 | –
